# US4656184A, “2-(N-substituted hydrazone), thiazoles useful as anti-inflammatories” (priority 1982, dated 1987)
# Where two headings read alike, the source gives them in different places.
# Legend:
# [1] = target: T1, 5-lipoxygenase of the peritoneal leukocytes of rabbits (PMNs) (Oryctolagus cuniculus, UniProt G1SNX0); assay: Inhibition of the 5-lipoxygenase of the peritoneal leukocytes of rabbits (PMNs), metabolism of 14C-arachidonate; type: cell-based; conditions: rabbit peritoneal PMNs; for IC50 / IC50 in the PMNs, 5 HETE / IC50 in the PMNs, LTB4: n.i. = no inhibition
# T1 construct: metabolism of ^14 C-AA in the peritoneal PMNs of rabbits; endogenous in cells; host or cells: rabbit peritoneal polymorphonuclear leukocytes (suspension)
# T1 sequence (G1SNX0 1-674): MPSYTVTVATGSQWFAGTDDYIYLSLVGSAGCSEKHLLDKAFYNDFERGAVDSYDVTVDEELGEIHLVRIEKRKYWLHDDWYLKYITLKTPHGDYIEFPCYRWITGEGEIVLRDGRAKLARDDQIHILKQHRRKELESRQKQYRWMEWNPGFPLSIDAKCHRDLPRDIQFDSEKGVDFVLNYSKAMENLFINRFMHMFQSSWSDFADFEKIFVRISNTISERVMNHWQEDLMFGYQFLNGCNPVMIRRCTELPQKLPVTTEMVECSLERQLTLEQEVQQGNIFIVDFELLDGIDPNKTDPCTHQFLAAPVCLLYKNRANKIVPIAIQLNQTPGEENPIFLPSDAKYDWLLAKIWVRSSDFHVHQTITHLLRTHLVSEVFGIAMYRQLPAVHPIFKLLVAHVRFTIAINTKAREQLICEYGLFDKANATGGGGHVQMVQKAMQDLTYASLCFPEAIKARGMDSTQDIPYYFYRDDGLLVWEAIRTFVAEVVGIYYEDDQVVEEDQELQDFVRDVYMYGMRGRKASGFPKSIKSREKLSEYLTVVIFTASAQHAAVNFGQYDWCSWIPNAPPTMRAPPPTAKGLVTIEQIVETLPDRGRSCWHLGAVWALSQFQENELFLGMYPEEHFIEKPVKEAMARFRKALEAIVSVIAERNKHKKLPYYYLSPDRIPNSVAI
# Method: 1.1. Inhibition of the 5-lipoxygenase of the peritoneal leukocytes of rabbits (PMNs)
# (§1) Preparation of a suspension of rabbit PMNs
# (§2) The peritoneal leukocytes of rabbits are obtained and prepared according to the technique described by P. Borgeat and B. Samuelson (J. Biol. Chem. 254, n° 8, p. 2643, 1979).
# (§3) Metabolism of ^14 C-Arachidonate
# (§4) The incubation and extraction methods are those described by J. Y. Vanderhoek & co-workers (J. Biol. Chem. […], 21, 10064, 1980).
# (§5) The percent inhibition of the 5-lipoxygenase is determined as a function of the concentration of each compound. The concentration of product that inhibits the metabolism by a factor of 50% (IC50) is inferred from those curves.
# 12-lipoxygenase = target: T2, 12-lipoxygenase (Oryctolagus cuniculus, UniProt G1U492); assay: Inhibition of the metabolism of 14C-arachidonate in the blood platelets of rabbits: 12-lipoxygenase route (12-HETE); type: cell-based; conditions: rabbit blood platelets; for IC50 in the blood platelets, 12 HETE / IC50: n.i. = no inhibition, 12 HETE
# T2 construct: metabolism of ^14 C-Arachidonate in the blood platelets of rabbits; endogenous in cells; host or cells: washed rabbit blood platelets (from platelet-rich plasma)
# T2 sequence (G1U492 1-663): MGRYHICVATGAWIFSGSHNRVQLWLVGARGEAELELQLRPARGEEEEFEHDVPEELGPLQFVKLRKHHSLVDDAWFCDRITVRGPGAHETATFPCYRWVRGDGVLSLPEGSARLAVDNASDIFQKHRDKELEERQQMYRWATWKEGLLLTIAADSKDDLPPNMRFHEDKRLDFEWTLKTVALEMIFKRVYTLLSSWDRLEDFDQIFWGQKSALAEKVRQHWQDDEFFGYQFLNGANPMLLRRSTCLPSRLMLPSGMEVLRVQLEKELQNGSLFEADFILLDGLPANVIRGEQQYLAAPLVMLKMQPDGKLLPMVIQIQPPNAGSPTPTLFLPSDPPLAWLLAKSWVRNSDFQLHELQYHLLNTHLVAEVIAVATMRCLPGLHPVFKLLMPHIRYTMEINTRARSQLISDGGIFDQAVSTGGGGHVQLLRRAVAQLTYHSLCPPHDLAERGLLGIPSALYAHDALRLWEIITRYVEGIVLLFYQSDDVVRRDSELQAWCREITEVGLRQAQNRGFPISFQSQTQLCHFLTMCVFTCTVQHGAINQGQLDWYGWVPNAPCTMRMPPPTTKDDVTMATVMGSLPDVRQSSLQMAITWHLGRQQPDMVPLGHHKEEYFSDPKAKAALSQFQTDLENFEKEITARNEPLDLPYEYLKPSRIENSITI
# Method: (§6) 1.2. Inhibition of the metabolism of
# (§7) ^14 C-Arachidonate in the blood platelets of rabbits
# (§8) Preparation of a platelet-rich plasma (PRP)
# (§9) A 12 ml blood sample is taken, by the intracardiac route, on ACD (anticoagulant consisting of an aqueous solution containing 0.27 g citric acid, 0.5 g disodium citrate and 0.02 g glucose per 20 ml water), at a rate of 1 volume ACD per 6 volumes blood. The blood is centrifuged at 200 g for 10 minutes and the supernatant (PRP) is collected. It is again centrifuged at 1500 g for 15 minutes. The blood-platelet sediment is washed with Buffer I (NaCl: 8 g/l, Tris: 1.21 g/l, KCl: 0.2 g/l, Gelatin: 2.5 g/l; the material is heated at 90° C. to dissolve the gelatin, after which are added glucose: 1 g/l, and N,N'-ethyleneglycol bis(β-aminoethyl ether,)tetraacetic acid or EGTA: 0.075 g/l). The suspension is centrifuged at 1500 g for 10 minutes, and the sediment is taken up into Buffer II (NaCl: 8 g/l, Tris: 1.21 g/l, KCl: 0.2 g/l, CaCl2 : 0.145 g/l, MgCl2 0.2 g/l, gelatin: 2.5 g/l; this material is heated to 90° C., after which glucose (1 g/l) is added, and the pH is adjusted to a value of 7.4 with 0.1 N HCl),
# as §3
# (§10) The blood-platelet suspension (0.4 ml/tube) is pre-incubated at 37° C. for 15 minutes, either with 10 μl DMSO (reference), or with varying concentrations of products to be treated dissolved in 10 μl DMSO.
# (§11) The incubation is effected in the presence of ^14 C-Arachidonate (1 μg, 0.2 μCi) distributed within 0.1 ml Buffer II. It is blocked after 15 minutes by means of 50 μl citric acid and 250 μl saturated NaCl.
# prostanoids = assay: Inhibition of the metabolism of 14C-arachidonate in the blood platelets of rabbits: prostanoids route (TxB2, HHT); type: cell-based; conditions: rabbit blood platelets
# Method: as §6, §7, §8, §9, §3, §10, §11
# edema of the ear in rats = assay: Cutaneous anti-inflammatory activity: inhibition of the edema of the ear in rats following topic administration; type: in vivo; conditions: rat ear edema, topical
# Method: Cutaneous anti-inflammatory activity determined by the inhibition of the edema of the ear in rats following topic administration. This activity is determined by means of the method according to G. Tonelli and co-workers (Endocrinology, 1965, 77, 625-634). The effect of various concentrations of each compound is determined in at least seven rats. Inflammation is inhibited by a factor of 50% at the following concentrations: […]
# 15 HETE = assay: Metabolism of 14C-arachidonate in rabbit peritoneal PMNs: 15 HETE; type: cell-based; conditions: 15 HETE formation, n.i. = no inhibition
# Method: as §1, §2, §3, §4, §5
# [2] = Acute toxicity, intraperitoneal route; conditions: mouse, in vivo, ip, in DMSO, 14 days observation, with confidence interval
# Method: The test animals used are Swiss mice (NMRI-Han). The average weight of the male animals is 30 g, that of the females is 25 g.
# The acute toxicity investigation was conducted by the intraperitoneal route.
# The compounds, dissolved in DMSO, are injected under the ventral side of the peritoneum, at increasing dosages.
# The reference group is administered DMSO under the same conditions (2.5 ml.kg^-1).
# Following Table III gives the values of the 50% lethal dosages together with the […].
# [3] = tested on: leukocytic infiltration in the aqueous humor; conditions: in vivo; cited from earlier work
# [4] = 5 HETE formation, read-out: IC50 in the PMNs, 5 HETE
# [5] = LTB4 formation, read-out: IC50 in the PMNs, LTB4
# [6] = Oryctolagus cuniculus, Platelet, HHT, read-out: IC50 in the blood platelets, HHT
# [7] = Oryctolagus cuniculus, Platelet, thromboxane B2, read-out: IC50 in the blood platelets, T × B2
# [8] = HHT, read-out: IC50 in the blood platelets, HHT
# [9] = thromboxane B2, read-out: IC50 in the blood platelets, T × B2
SMILES,"IC50 [1, 4] [µM]","IC50 [1, 5] [µM]",IC50 (prostanoids; [6]) [µM],IC50 (prostanoids; [7]) [µM],IC50 (12-lipoxygenase) [µM],IC50 (prostanoids; [8]) [µM],IC50 (prostanoids; [9]) [µM],also measured
"C[C@H](Cc1ccc(O)c(O)c1)[C@@H](C)Cc1ccc(O)c(O)c1 [NDGA, Nordihydroguaiaretic acid]",,,,,,,,concentration at which inflammation is inhibited by a factor of 50% (edema of the ear in rats; at least seven rats): 12.5 mg/mL; concentration at which inflammation is inhibited by a factor of 50% (edema of the ear in rats; molar value in parentheses): 41 µmol/mL
CC(=O)Oc1ccccc1C(=O)O [Aspirin],,,,,,,,"concentration at which inflammation is inhibited by a factor of 50% (edema of the ear in rats; at least seven rats): 70 mg/mL; concentration at which inflammation is inhibited by a factor of 50% (edema of the ear in rats; molar value in parentheses): 233 µmol/mL; inhibition of the 12-lipoxygenase route (chromatographic profile, FIG. 3b) (12-lipoxygenase): does not inhibit the 12-lipoxygenase route"
CC(=NNc1nccs1)c1cccs1 [Example 3],18,7,,,3,20,50,"IC50 in the PMNs, 15 HETE (15 HETE): n.i."
CCOC(=O)CCCC(C)=NNc1nccs1 [Example 1],< 2,< 2,> 50,,> 50,,> 50,IC50 (15 HETE; Oryctolagus cuniculus): > 50 µM
CC(=NNc1nccs1)c1cccs1 [Example 3b],10,13,,,10,> 50,10,"LD50 at 336 h ([2]; female Swiss mice, read-out: Parenteral LD50, female mice): 155 ± 32 mg/kg; LD50 at 336 h ([2]; male Swiss mice, read-out: Parenteral LD50, male mice): 105 ± 24 mg/kg; IC50 (15 HETE): 40 µM; concentration at which inflammation is inhibited by a factor of 50% (edema of the ear in rats; at least seven rats): 16 mg/mL; concentration at which inflammation is inhibited by a factor of 50% (edema of the ear in rats; molar value in parentheses): 57 µmol/mL; inhibition of the metabolism of the 5-lipoxygenase route (chromatographic profile, FIG. 2b) ([1]; 50 μM): inhibition of the metabolism of the 5-lipoxygenase route"
COc1ccc2c(c1)c(CC(=O)O)c(C)n2C(=O)c1ccc(Cl)cc1 [Indomethacin],,,,,,,,leukocytic infiltration in the aqueous humor [3]: increases leukocytic infiltration in the aqueous humor; concentration at which inflammation is inhibited by a factor of 50% (edema of the ear in rats; at least seven rats): no inhibition
CC(=NNc1nccs1)c1cccs1 [Example 3d],< 2,2,,,22,50,10,"IC50 in the PMNs, 15 HETE (15 HETE): n.i."
CC(=NNc1nccs1)c1cccs1 [Example 3a],15,,,,30,21,13,IC50 (15 HETE; Oryctolagus cuniculus): 40 µM
C[C@@H]1C[C@H]2[C@@H]3CCC4=CC(=O)C=C[C@]4(C)[C@@]3(F)[C@@H](O)C[C@]2(C)[C@@]1(O)C(=O)CO [Dexamethasone],,,,,,,,concentration at which inflammation is inhibited by a factor of 50% (edema of the ear in rats; at least seven rats): 1 mg/mL; concentration at which inflammation is inhibited by a factor of 50% (edema of the ear in rats; molar value in parentheses): 2.5 µmol/mL

# Further lines, with some results ahead:
"IC50 [1, 4] [µM]","IC50 [1, 5] [µM]",IC50 (prostanoids; [6]) [µM],IC50 (prostanoids; [7]) [µM],IC50 (12-lipoxygenase) [µM],SMILES,IC50 (prostanoids; [8]) [µM],IC50 (prostanoids; [9]) [µM],also measured
20,10,10,10,,NC(=NNc1ccccc1)c1ccccc1 [Example 21],,,"IC50 in the blood platelets, 12 HETE (12-lipoxygenase): n.i."
5,,,,,c1ccc2c(c1)CCCC2=NNc1nccs1 [Example 7a],15,5,"IC50 (15 HETE): 2 µM; IC50 in the blood platelets, 12 HETE (12-lipoxygenase): n.i."
,,20,15,,O=C(O)c1cc(=NNc2nccs2)c2ccccc2o1 [Example 20],,,"IC50 in the PMNs, 5 HETE ([1]; 5 HETE formation): n.i.; IC50 in the PMNs, LTB4 ([1]; LTB4 formation): n.i.; IC50 in the blood platelets, 12 HETE (12-lipoxygenase): n.i."
6,8,16,10,40,c1ccc2c(c1)CCCC2=NNc1nccs1 [Example 7],,,IC50 (15 HETE; Oryctolagus cuniculus): 2 µM
,13,,,,CCOC(=O)CCCC(C)=NNc1nccs1 [Example 1a],50,12,"IC50 in the blood platelets, 12 HETE (12-lipoxygenase): n.i."
,,> 50,> 50,> 50,CC(Cn1ccnc1)=NNc1nccs1 [Example 4],,,"IC50 (15 HETE; Oryctolagus cuniculus): 2 µM; IC50 in the PMNs, 5 HETE ([1]; 5 HETE formation): n.i.; IC50 in the PMNs, LTB4 ([1]; LTB4 formation): n.i."
10,2,> 50,10,14,CC(=NNc1nccs1)c1ccco1 [Example 3c],,,IC50 (15 HETE; Oryctolagus cuniculus): > 50 µM
< 25,< 25,25,< 25,,CC(=NNc1nccs1)c1ccccc1N [Example 15],,,"IC50 in the blood platelets, 12 HETE (12-lipoxygenase): n.i."
25,25,25,25,25,CN1CCN(C(=NNc2ccccc2)c2ccccc2)CC1 [Example 23],,,
